One experiment has as its system F. nucleatum. Kind of experiment: Bacterial survival after 20 sec blue light exposure in the presence of scavengers. It is filed as cell-based, Fusobacterium nucleatum. As to conditions: F. nucleatum in PBS suspension, halogen lamp, 23 J/cm^2, scavengers 30 to 100 μM, relative to non-exposed control (FIG. 5D). The procedure: (§1) Bacteria: P. gingivalis, F. nucleatum, S. mutans, S. faecalis, P. gingivalis and F. nucleatum were grown and incubated at 37° C. in an anaerobic jar at <1% O2 and 9-13% CO2. S. mutans and S. faecalis were grown and incubated under aerobic conditions at 37° C. All the strains were sub-cultured twice before exposure to light. The bacterial concentration following 24 h incubation was standardized by dilution with sterile broth to about 5×10^6 cfu.
(§2) Determination of bacterial survival: Following exposure of the bacteria in suspension to light, samples were diluted and applied to the agar plates. Survival of these bacteria were determined, as well as of the duplicates of single bacteria on agar, by counting cfu following incubation. P. gingivalis and F. nucleatum were cultured under anaerobic conditions and S. mutans and S. faecalis under aerobic conditions at 37° C. until bacterial colonies were visible (1-5 days). The percentage of surviving bacteria was calculated in relation to the control non-exposed samples under similar experimental conditions. Biofilm inhibition in the triplicates bacterial lawn samples was defined as a halo without colony growth appearing in the light-exposed areas. All experiments in which the results of the exposed samples differed from those of the control were repeated at least twice. […]

The test system of a further experiment is P. gingivalis. Described as above. It is filed as cell-based, Porphyromonas gingivalis. The conditions noted are these: P. gingivalis in PBS suspension, halogen lamp, 23 J/cm^2, scavengers 30 to 100 μM, relative to non-exposed control (FIG. 5C). The method, then: as §1, §2

This note sets out measurements from US8240312B2, “Method and means for exerting a phototoxic effect of visible light on microorganisms” (Osnat Feuerstein, priority 2004, dated 2012).

On to `CNC(=S)NC` [DMTU, dimethylthiourea], for which the entries for the “percent survival of bacteria” value in the experiment with F. nucleatum and in the experiment with P. gingivalis were 63% and 48%, respectively.
